From US20240174662A1, “SMALL MOLECULE INHIBITORS OF SALT INDUCIBLE KINASES” (Janssen Biotech, Inc., priority 2021, published 2024)

Each compound was assayed against SIK2 (Homo sapiens (Human), UniProt Q9H0K1) (assay: SIK2 Enzymatic Assay Version 2 (High ATP)). Conditions: 3 mM ATP and 200 μM HDAC5tide final, ADP-Glo Max luminescence.
Type: biochemical
In short: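 Luminescent ADP-Glo Max read-out: depletion reagent 2 h, then detection reagent 1 h. Before the reaction, compounds were incubated 30 min with enzyme added at 6 nM (twice final concentration), with all steps at room temperature.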

SIK2, sequence (Q9H0K1 whole entry, species assumed): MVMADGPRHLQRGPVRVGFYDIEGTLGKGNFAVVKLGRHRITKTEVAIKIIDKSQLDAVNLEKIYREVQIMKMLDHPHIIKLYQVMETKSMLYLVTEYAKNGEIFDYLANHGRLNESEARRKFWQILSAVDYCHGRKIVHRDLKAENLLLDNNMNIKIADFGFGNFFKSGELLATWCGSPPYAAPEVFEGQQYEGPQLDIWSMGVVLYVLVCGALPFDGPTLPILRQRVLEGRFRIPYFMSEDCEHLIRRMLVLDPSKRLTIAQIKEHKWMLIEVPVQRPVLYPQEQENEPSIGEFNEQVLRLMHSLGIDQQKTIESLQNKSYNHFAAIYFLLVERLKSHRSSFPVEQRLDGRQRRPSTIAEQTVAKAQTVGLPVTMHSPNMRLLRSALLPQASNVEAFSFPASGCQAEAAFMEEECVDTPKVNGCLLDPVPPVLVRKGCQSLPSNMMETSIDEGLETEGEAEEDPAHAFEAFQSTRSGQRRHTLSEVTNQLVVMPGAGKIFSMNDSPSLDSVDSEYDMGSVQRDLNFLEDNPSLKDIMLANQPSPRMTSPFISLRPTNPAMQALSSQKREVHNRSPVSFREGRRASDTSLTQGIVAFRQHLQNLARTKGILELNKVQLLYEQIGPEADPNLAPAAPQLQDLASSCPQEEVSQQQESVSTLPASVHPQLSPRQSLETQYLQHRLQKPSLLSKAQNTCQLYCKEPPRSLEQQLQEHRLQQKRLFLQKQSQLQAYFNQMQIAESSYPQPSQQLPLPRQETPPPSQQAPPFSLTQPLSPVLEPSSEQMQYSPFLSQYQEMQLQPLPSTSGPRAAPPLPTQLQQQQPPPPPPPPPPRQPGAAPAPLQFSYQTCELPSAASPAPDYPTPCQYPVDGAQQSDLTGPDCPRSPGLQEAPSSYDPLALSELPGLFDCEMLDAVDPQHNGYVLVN

Row | Compound | IC50
1 | Cn1ncc(OC[C@H]2CCN2)c1-c1ccn2nc(Nc3cncc(-n4cccn4)n3)cc2c1 [Example 291, 5-[4-[[(2R)-azetidin-2-yl]methoxy]-2-methyl-pyrazol-3-yl]-N-(6-pyrazol-1-ylpyrazin-2-yl)pyrazolo[1,5-a]pyridin-2-amine] | 31.2 nM
2 | [2H]C([2H])([2H])C([2H])([2H])N1CCC[C@@H]1COc1cnn(C)c1-c1ccn2nc(Nc3cc(C)nc(C)n3)cc2c1 [Example 293, N-(2,6-dimethylpyrimidin-4-yl)-5-[2-methyl-4-[[(2R)-1-(1,1,2,2,2-pentadeuterioethyl)pyrrolidin-2-yl]methoxy]pyrazol-3-yl]pyrazolo[1,5-a]pyridin-2-amine] | < 0.847 nM
3 | Cc1cnc(Nc2cc3cc(-c4c(OC[C@H]5CCN5C[C@H](C)O)cnn4C)ccn3n2)cn1 [Example 296, (2S)-1-[(2R)-2-[[1-methyl-5-[2-[(5-methylpyrazin-2-yl)amino]pyrazolo[1,5-a]pyridin-5-yl]pyrazol-4-yl]oxymethyl]azetidin-1-yl]propan-2-ol] | 6.2 nM
4 | Cc1ncc(Nc2cc3cc(-c4c(OC[C@H]5CCN5C[C@H](C)O)cnn4C)ccn3n2)nc1C [Example 297, (2S)-1-[(2R)-2-[[5-[2-[(5,6-dimethylpyrazin-2-yl)amino]pyrazolo[1,5-a]pyridin-5-yl]-1-methyl-pyrazol-4-yl]oxymethyl]azetidin-1-yl]propan-2-ol] | < 0.847 nM
5 | Cc1cc(Nc2cc3cc(-c4c(OC[C@@H]5CCN5C)cnn4C)ccn3n2)nc(C(F)(F)F)n1 [Example 308, 5-[2-methyl-4-[[(2S)-1-methylazetidin-2-yl]methoxy]pyrazol-3-yl]-N-[6-methyl-2-(trifluoromethyl)pyrimidin-4-yl]pyrazolo[1,5-a]pyridin-2-amine] | 15.3 nM
6 | CCN1CC[C@@H]1COc1cnn(C)c1-c1ccn2nc(Nc3cnc(C(=O)OC)cn3)cc2c1 [Example 311, methyl 5-[[5-[4-[[(2R)-1-ethylazetidin-2-yl]methoxy]-2-methyl-pyrazol-3-yl]pyrazolo[1,5-a]pyridin-2-yl]amino]pyrazine-2-carboxylate] | 1.4 nM
7 | CCn1ncc(OC[C@@H]2CCNC2)c1-c1ccn2nc(NC(=O)C3CC3)cc2c1 [Example 312, N-[5-[2-ethyl-4-[[(3R)-pyrrolidin-3-yl]methoxy]pyrazol-3-yl]pyrazolo[1,5-a]pyridin-2-yl]cyclopropanecarboxamide] | 44.3 nM
8 | Cn1ncc(O[C@H]2C[C@H]3COC[C@@H](C2)N3)c1-c1ccn2nc(NC(=O)C3CC3)cc2c1 [Example 313, N-[5-[2-methyl-4-[[(1R,5S)-3-oxa-9-azabicyclo[3.3.1]nonan-7-yl]oxy]pyrazol-3-yl]pyrazolo[1,5-a]pyridin-2-yl]cyclopropanecarboxamide] | 29.6 nM
9 | CN1CC(C)(COc2cnn(C)c2-c2ccn3nc(NC(=O)C4CC4)cc3c2)C1 [Example 314, N-[5-[4-[(1,3-dimethylazetidin-3-yl)methoxy]-2-methyl-pyrazol-3-yl]pyrazolo[1,5-a]pyridin-2-yl]cyclopropanecarboxamide] | 30.4 nM
10 | Cn1ncc(OC[C@H]2CCN2CC(F)(F)F)c1-c1ccn2nc(NC(=O)C3CC3)cc2c1 [Example 315, N-[5-[2-methyl-4-[[(2R)-1-(2,2,2-trifluoroethyl)azetidin-2-yl]methoxy]pyrazol-3-yl]pyrazolo[1,5-a]pyridin-2-yl]cyclopropanecarboxamide] | 14.1 nM
11 | Cc1onc(OC2CCNCC2)c1-c1ccn2nc(NC(=O)C3CC3)cc2c1 [Example 316, N-[5-[5-methyl-3-(4-piperidyloxy)isoxazol-4-yl]pyrazolo[1,5-a]pyridin-2-yl]cyclopropanecarboxamide] | 50.3 nM
12 | COC1(COc2noc(C)c2-c2ccn3nc(Nc4cnccn4)cc3c2)CNC1 [Example 318, 5-[3-[(3-methoxyazetidin-3-yl)methoxy]-5-methyl-isoxazol-4-yl]-N-pyrazin-2-yl-pyrazolo[1,5-a]pyridin-2-amine] | 13.5 nM
13 | Cc1onc(OC[C@H]2C[C@@H](N)C2)c1-c1ccn2nc(NC(=O)C3CC3)cc2c1 [Example 319, N-[5-[3-[(3-aminocyclobutyl)methoxy]-5-methyl-isoxazol-4-yl]pyrazolo[1,5-a]pyridin-2-yl]cyclopropanecarboxamide] | 51.8 nM
14 | Cc1cc(Nc2cc3cc(-c4c(OC[C@H]5CCN5)noc4C)ccn3n2)nc(C)n1 [Example 320, 5-[3-[[(2R)-azetidin-2-yl]methoxy]-5-methyl-isoxazol-4-yl]-N-(2,6-dimethylpyrimidin-4-yl)pyrazolo[1,5-a]pyridin-2-amine] | 50.8 nM
15 | Cc1onc(OC[C@H]2N(C)CC2(C)C)c1-c1ccn2nc(NC(=O)C3CC3)cc2c1 [Example 321, N-[5-[5-methyl-3-[[(2S)-1,3,3-trimethylazetidin-2-yl]methoxy]isoxazol-4-yl]pyrazolo[1,5-a]pyridin-2-yl]cyclopropanecarboxamide] | 52.6 nM
16 | Cc1cnc(Nc2cc3cc(-c4c(O[C@@H]5CN[C@H](C)C5)noc4C)ccn3n2)cn1 [Example 322, 5-[5-methyl-3-[(3S,5R)-5-methylpyrrolidin-3-yl]oxy-isoxazol-4-yl]-N-(5-methylpyrazin-2-yl)pyrazolo[1,5-a]pyridin-2-amine] | 46.3 nM
17 | Cc1cnc(Nc2cc3cc(-c4c(OC[C@H]5CCN5C)noc4C)ccn3n2)cn1 [Example 323, 5-[5-methyl-3-[[(2R)-1-methylazetidin-2-yl]methoxy]isoxazol-4-yl]-N-(5-methylpyrazin-2-yl)pyrazolo[1,5-a]pyridin-2-amine] | 25.6 nM
18 | Cc1onc(OC[C@H](c2ccccc2F)N(C)C)c1-c1ccn2nc(NC(=O)C3CC3)cc2c1 [Example 324, N-[5-[3-[(2S)-2-(dimethylamino)-2-(2-fluorophenyl)ethoxy]-5-methyl-isoxazol-4-yl]pyrazolo[1,5-a]pyridin-2-yl]cyclopropanecarboxamide] | 23.8 nM

The next lines start with the values.

Row | IC50 | Compound
19 | 16.8 nM | Cc1cc(Nc2cc3cc(-c4c(OCC56CC(CN5)C6)cnn4C)ccn3n2)nc(C)n1 [Example 288, 5-[4-(3-azabicyclo[2.1.1]hexan-4-ylmethoxy)-2-methyl-pyrazol-3-yl]-N-(2,6-dimethylpyrimidin-4-yl)pyrazolo[1,5-a]pyridin-2-amine]
20 | 1.4 nM | CCN1CCC[C@@H]1COc1cnn(C)c1-c1ccn2nc(Nc3cc(C)nc(C)n3)cc2c1 [Example 289, N-(2,6-dimethylpyrimidin-4-yl)-5-[4-[[(2R)-1-ethylpyrrolidin-2-yl]methoxy]-2-methyl-pyrazol-3-yl]pyrazolo[1,5-a]pyridin-2-amine]
21 | < 0.847 nM | [2H]C([2H])([2H])N1CC[C@@H]1COc1cnn(C)c1-c1ccn2nc(Nc3cc(C)nc(C)n3)cc2c1 [Example 290, N-(2,6-dimethylpyrimidin-4-yl)-5-[2-methyl-4-[[(2R)-1-(trideuteriomethyl)azetidin-2-yl]methoxy]pyrazol-3-yl]pyrazolo[1,5-a]pyridin-2-amine]
22 | < 0.847 nM | Cc1cc(Nc2cc3cc(-c4c(OC[C@H]5CCN5C[C@H](C)O)cnn4C)ccn3n2)nc(C)n1 [Example 292, (2S)-1-[(2R)-2-[[5-[2-[(2,6-dimethylpyrimidin-4-yl)amino]pyrazolo[1,5-a]pyridin-5-yl]-1-methyl-pyrazol-4-yl]oxymethyl]azetidin-1-yl]propan-2-ol]
23 | 2.6 nM | [2H]C([2H])([2H])C([2H])([2H])N1CC[C@@H]1COc1cnn(C)c1-c1ccn2nc(Nc3cc(C)nc(C)n3)cc2c1 [Example 294, N-(2,6-dimethylpyrimidin-4-yl)-5-[2-methyl-4-[[(2R)-1-(1,1,2,2,2-pentadeuterioethyl)azetidin-2-yl]methoxy]pyrazol-3-yl]pyrazolo[1,5-a]pyridin-2-amine]
24 | 39.2 nM | Cc1cc(Nc2cc3cc(-c4c(O[C@@H]5CCN[C@H]5C)cnn4C)ccn3n2)nc(C)n1 [Example 298, N-(2,6-dimethylpyrimidin-4-yl)-5-[2-methyl-4-[(2S,3R)-2-methylpyrrolidin-3-yl]oxy-pyrazol-3-yl]pyrazolo[1,5-a]pyridin-2-amine]
25 | 10.8 nM | Cc1cc(Nc2cc3cc(-c4c(OC[C@H]5OCC[C@@H]5O)cnn4C)ccn3n2)nc(C)n1 [Example 300, (2R,3S)-2-[[5-[2-[(2,6-dimethylpyrimidin-4-yl)amino]pyrazolo[1,5-a]pyridin-5-yl]-1-methyl-pyrazol-4-yl]oxymethyl]tetrahydrofuran-3-ol]
26 | 15.2 nM | Cc1cc(Nc2cc3cc(-c4c(OC[C@@H](O)C5(C)CC5)cnn4C)ccn3n2)nc(C)n1 [Example 301, (1S)-2-[5-[2-[(2,6-dimethylpyrimidin-4-yl)amino]pyrazolo[1,5-a]pyridin-5-yl]-1-methyl-pyrazol-4-yl]oxy-1-(1-methylcyclopropyl)ethanol]
27 | 28.3 nM | Cc1cc(Nc2cc3cc(-c4c(OC[C@@H](O)C5CCC5)cnn4C)ccn3n2)nc(C)n1 [Example 302, (S)-1-cyclobutyl-2-[5-[2-[(2,6-dimethylpyrimidin-4-yl)amino]pyrazolo[1,5-a]pyridin-5-yl]-1-methyl-pyrazol-4-yl]oxy-ethanol]
28 | 16.1 nM | Cc1cc(Nc2cc3cc(-c4c(OC[C@H]5C[C@H](C)CN5C)cnn4C)ccn3n2)nc(C)n1 [Example 305, N-(2,6-dimethylpyrimidin-4-yl)-5-[4-[[(2R,4S)-1,4-dimethylpyrrolidin-2-yl]methoxy]-2-methyl-pyrazol-3-yl]pyrazolo[1,5-a]pyridin-2-amine]
29 | 2.9 nM | Cc1cc(Nc2cc3cc(-c4c(OCC(N)C5(C)CC5)cnn4C)ccn3n2)nc(C)n1 (stereo not drawn) [Example 309, 5-[4-[2-amino-2-(1-methylcyclopropyl)ethoxy]-2-methyl-pyrazol-3-yl]-N-(2,6-dimethylpyrimidin-4-yl)pyrazolo[1,5-a]pyridin-2-amine]
30 | 4 nM | Cc1cc(Nc2cc3cc(-c4c(OCC(N)C56CC(C5)C6)cnn4C)ccn3n2)nc(C)n1 (stereo not drawn) [Example 310, 5-[4-[2-amino-2-(3-bicyclo[1.1.1]pentanyl)ethoxy]-2-methyl-pyrazol-3-yl]-N-(2,6-dimethylpyrimidin-4-yl)pyrazolo[1,5-a]pyridin-2-amine]
